According to PMC6664433 (Cancer discovery, 2019):

Columns and labels:
[1] = system: parental Ba/F3 cells; test: Ba/F3 cell proliferation; format: cell-based, murine; details: 72 hours
[2] = system: Del_19-containing EGFR mutants; test: KINOMEscan kinome selectivity profiling; format: binding, human; details: 10µM
[3] = system: H1975 cells; test: Western blotting of EGFR, AKT, ERK1/2 phosphorylation; details: 4 hours, compared to osimertinib
[4] = target: TIE1 (Homo sapiens, UniProt P35590); test: KINOMEscan kinome selectivity profiling; format: binding; details: 10µM
TIE1, sequence (P35590 22-1138): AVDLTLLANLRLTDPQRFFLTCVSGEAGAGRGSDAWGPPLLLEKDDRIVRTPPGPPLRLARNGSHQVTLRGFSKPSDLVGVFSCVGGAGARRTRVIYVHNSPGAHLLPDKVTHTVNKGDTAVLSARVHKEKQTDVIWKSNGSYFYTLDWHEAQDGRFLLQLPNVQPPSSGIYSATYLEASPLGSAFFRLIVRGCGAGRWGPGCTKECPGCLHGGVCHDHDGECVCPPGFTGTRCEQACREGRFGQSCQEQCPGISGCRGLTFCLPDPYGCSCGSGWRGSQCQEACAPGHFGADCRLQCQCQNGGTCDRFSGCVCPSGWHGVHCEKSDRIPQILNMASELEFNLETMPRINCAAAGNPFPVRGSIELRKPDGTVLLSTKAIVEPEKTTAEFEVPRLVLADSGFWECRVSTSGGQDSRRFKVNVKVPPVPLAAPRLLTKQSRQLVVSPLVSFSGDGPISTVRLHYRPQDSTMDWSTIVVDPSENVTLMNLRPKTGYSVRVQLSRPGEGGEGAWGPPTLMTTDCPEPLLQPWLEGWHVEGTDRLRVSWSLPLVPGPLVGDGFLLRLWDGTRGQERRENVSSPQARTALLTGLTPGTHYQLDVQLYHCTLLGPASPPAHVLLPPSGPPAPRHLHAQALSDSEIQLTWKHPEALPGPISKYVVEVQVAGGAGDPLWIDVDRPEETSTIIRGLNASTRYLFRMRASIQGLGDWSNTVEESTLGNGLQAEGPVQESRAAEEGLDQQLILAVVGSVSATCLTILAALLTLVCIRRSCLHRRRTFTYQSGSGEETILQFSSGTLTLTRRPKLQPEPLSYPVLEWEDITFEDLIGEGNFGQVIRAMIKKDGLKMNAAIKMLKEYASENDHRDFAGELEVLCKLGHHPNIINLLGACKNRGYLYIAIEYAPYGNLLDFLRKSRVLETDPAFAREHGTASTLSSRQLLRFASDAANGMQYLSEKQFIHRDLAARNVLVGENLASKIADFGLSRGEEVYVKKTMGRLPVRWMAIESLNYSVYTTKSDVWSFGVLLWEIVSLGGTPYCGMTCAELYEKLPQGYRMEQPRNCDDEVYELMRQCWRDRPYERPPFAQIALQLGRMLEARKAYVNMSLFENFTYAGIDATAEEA

[5] = target: MAP4K5 (Homo sapiens, UniProt Q9Y4K4); test: KINOMEscan kinome selectivity profiling; format: binding; details: 10µM
MAP4K5, sequence (Q9Y4K4 whole entry): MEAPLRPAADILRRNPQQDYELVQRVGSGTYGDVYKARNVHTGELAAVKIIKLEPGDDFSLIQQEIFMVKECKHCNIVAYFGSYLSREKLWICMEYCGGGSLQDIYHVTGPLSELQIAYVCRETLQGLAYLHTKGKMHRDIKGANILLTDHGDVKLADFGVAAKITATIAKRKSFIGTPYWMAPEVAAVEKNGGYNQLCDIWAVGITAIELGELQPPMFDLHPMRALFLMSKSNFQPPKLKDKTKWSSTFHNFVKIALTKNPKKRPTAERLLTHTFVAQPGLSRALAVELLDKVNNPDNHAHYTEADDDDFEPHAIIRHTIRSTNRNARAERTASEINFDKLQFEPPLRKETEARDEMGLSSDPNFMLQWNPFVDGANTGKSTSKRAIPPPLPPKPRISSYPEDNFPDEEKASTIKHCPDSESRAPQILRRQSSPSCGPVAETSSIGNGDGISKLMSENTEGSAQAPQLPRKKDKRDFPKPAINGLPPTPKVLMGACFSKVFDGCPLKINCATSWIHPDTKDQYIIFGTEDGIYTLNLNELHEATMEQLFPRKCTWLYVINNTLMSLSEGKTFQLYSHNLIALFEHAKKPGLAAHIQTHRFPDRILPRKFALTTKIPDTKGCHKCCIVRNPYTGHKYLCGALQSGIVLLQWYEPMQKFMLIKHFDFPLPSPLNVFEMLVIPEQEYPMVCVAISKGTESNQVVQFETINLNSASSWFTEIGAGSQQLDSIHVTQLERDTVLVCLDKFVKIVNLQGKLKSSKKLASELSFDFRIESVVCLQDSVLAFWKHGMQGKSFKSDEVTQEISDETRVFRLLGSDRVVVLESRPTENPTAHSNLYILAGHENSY

[6] = system: L858R/T790M Ba/F3 cells; test: ENU mutagenesis resistant colony assay; details: after ENU; 1μM osimertinib, 10μM JBJ-04-125-02, or combination; of 300 colonies
[7] = system: panel of 468 kinases; test: KINOMEscan kinome selectivity profiling; format: binding, human; details: 10µM, 35% cut-off
[8] = system: H1975 cells; test: Cell viability assay; details: 72 hours
[9] = Pharmacokinetic study; format: in vivo
[10] = system: Ba/F3 cell lines stably transfected with EGFR L858R, L858R/T790M or L858R/T790M/C797S; test: Ba/F3 cell proliferation; format: cell-based, murine; details: single agent, 72 hours
[11] = system: Ba/F3 cells containing the L858R/C797S mutation; test: Ba/F3 cell proliferation; format: cell-based, murine; details: compared to gefitinib
[12] = system: EGFR L858R/T790M/C797S genetically engineered mice; test: Pharmacodynamic study in GEM mice; format: in vivo; details: oral gavage once daily, 3 doses
[13] = system: Ba/F3 cells harboring EGFR Del_19 variants; test: Ba/F3 cell proliferation; format: cell-based, murine; details: 72 hours
[14] = system: H3255GR cells; test: IncuCyte long-term confluency assay; format: cell-based, human; details: osimertinib 1μM, JBJ-04-125-02 10μM or both, 2 weeks of treatment
[15] = target: TIE2 (Homo sapiens, UniProt Q02763); test: KINOMEscan kinome selectivity profiling; format: binding; details: 10µM
TIE2, sequence (Q02763 23-1124): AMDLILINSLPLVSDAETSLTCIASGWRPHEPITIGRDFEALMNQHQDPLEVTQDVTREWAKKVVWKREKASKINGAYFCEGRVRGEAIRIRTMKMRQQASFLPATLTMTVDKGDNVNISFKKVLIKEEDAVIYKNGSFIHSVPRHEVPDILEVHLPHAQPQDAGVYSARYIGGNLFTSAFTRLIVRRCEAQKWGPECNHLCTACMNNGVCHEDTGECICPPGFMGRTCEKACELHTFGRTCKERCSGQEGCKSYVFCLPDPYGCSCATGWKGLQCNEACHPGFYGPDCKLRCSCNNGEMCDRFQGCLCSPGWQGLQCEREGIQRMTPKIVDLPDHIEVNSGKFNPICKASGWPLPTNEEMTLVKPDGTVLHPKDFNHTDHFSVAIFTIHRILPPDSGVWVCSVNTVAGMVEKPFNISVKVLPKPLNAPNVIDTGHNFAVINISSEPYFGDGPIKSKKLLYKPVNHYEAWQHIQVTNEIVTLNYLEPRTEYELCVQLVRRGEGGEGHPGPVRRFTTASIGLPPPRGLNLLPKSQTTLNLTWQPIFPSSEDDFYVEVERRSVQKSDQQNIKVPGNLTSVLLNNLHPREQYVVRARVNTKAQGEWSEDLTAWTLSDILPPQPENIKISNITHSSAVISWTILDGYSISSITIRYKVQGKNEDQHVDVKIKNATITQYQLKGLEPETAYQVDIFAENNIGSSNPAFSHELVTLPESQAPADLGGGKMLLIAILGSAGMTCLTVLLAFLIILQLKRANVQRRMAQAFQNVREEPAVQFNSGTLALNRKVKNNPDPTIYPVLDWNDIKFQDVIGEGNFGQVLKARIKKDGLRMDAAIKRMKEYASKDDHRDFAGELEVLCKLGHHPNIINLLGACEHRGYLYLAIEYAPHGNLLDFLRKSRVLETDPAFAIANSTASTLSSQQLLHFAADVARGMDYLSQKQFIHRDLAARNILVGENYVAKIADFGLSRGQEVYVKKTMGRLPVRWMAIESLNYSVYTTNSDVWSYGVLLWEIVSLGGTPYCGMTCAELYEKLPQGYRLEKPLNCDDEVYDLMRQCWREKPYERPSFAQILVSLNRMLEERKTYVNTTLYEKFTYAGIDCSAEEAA

[16] = system: H1975 xenograft mouse model; test: Pharmacodynamic study in H1975 xenograft; details: 3 doses; JBJ-04-125-02 100mg/kg, osimertinib 25mg/kg
[17] = system: EGFR L858R/T790M/C797S genetically engineered mice; test: Efficacy study in GEM mice; format: in vivo
[18] = system: H3255GR cells; test: Cell viability assay; details: 72 hours
[19] = system: wild-type EGFR Ba/F3 cells; test: Ba/F3 cell proliferation; format: cell-based, murine; details: 72 hours
[20] = system: H1975 xenograft mouse model; details: for tumor volume change at day 18: osimertinib 2.5mg/kg, JBJ-04-125-02 100mg/kg, or both
[21] = system: H3255GR cells; test: IncuCyte Caspase-3/7 apoptosis assay; format: cell-based, human; details: 0.1μM osimertinib, 10μM allosteric inhibitor, or both; 72 hours
[22] = system: EGFR-mutant NSCLC patients; details: cited from earlier work; for PFS: osimertinib vs comparator arm gefitinib or erlotinib; for median PFS: patients with an L858R mutation, comparator arm gefitinib or erlotinib
[23] = system: EGFR-mutant models; details: without cetuximab; cited from earlier work
[24] = system: EGFR; test: Biotinylated EAI045 pull-down assay; format: binding; details: following osimertinib treatment
[25] = system: patients with advanced EGFR mutant NSCLC; details: initial therapy; cited from earlier work
[26] = system: patients with EGFR T790M-mediated drug resistance; details: cited from earlier work
[27] = target: L858R/T790M EGFR (Homo sapiens, UniProt P00533, L858R/T790M); test: HTRF-based EGFR biochemical assay; details: read-out: IC50 (biochemical potency); enzyme 20pM, 100µM ATP
L858R/T790M EGFR, sequence (P00533 696-1022 T790M/L858R): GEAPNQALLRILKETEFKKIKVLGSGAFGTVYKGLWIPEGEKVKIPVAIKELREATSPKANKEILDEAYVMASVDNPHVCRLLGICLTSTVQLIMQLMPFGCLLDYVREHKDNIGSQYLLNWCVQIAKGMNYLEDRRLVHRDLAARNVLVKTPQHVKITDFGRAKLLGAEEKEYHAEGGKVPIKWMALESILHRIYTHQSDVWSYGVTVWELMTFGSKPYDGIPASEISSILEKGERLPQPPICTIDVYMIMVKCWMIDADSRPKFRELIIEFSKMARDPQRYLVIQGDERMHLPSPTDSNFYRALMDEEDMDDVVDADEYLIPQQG

## O=C(Nc1nccs1)C(c1cc(F)ccc1O)N1Cc2ccc(-c3ccc(N4CCNCC4)cc3)cc2C1=O (stereo not drawn) [JBJ-04-125-02]
[1]
  inhibition of growth: did not inhibit the growth
[2]
  binding affinity: lacks binding affinity
[3]
  EGFR and ERK1/2 phosphorylation: downregulate EGFR and ERK1/2 phosphorylation more potently than osimertinib
[4]
  % control: 29 % control
[5]
  % control: 9.5 % control
[6]
  resistant colonies: 72%
[7]
  S-Score (35): 0.02
[8]
  concentration inhibiting cell proliferation: low nanomolar concentrations
[9]; 3 mg/kg intravenous (IV) dose
  area under the curve (AUClast): 728577 ng·min/mL
  half-life: 3 h
[9]; 20mg/kg oral dose
  average maximal plasma concentration: 1.1 µM
  oral bioavailability: 3%
[10]
  inhibition of cell proliferation: could inhibit cell proliferation as a single agent
[11]
  inhibition of cell proliferation: not as potent as gefitinib in inhibiting cell proliferation
[12]; 50mg/kg and 100mg/kg
  phosphorylation of EGFR, AKT and ERK1/2 in tumors: effectively inhibited phosphorylation of EGFR, AKT and ERK1/2
[13]
  sensitivity of cell proliferation: resistant
[14]
  confluency at 2 weeks: reached full confluency
[15]
  % control: 33 % control
[16]
  EGFR, AKT and ERK1/2 phosphorylation in tumors: reduction in EGFR phosphorylation but only subtle changes in AKT and ERK1/2 phosphorylation
[17]; 50mg/kg long-term treatment
  weight loss or signs of toxicity: not associated with weight loss or overt signs of toxicity
[17]; 50mg/kg, within 4 weeks, sustained for 15 weeks
  change in tumor volume: marked tumor regressions
[18]
  sensitivity of cell proliferation: resistant
[19]
  inhibition of growth: did not inhibit the growth
[20]
  tumor volume change at day 18: minimal reduction in tumor volume
[20]; osimertinib 25mg/kg, JBJ-04-125-02 100mg/kg, 35 days
  tumor growth: tumor stasis and occasional shrinkage in some mice
[21]
  apoptosis (Caspase-3/7 activity): no more effective than DMSO

## C#Cc1cccc(Nc2ncnc3cc(OCCOC)c(OCCOC)cc23)c1 [erlotinib]
[22]
  PFS: 10.2 months
  median PFS: 9.5 months

## O=C(Nc1nccs1)C(c1cc(F)ccc1O)N1Cc2ccccc2C1=O (stereo not drawn) [EAI045]
[23]
  single agent efficacy: not effective as a single agent
[24]
  co-binding with osimertinib: did indeed co-bind with osimertinib and increase EGFR precipitation

## C=CC(=O)Nc1cc(Nc2nccc(-c3cn(C)c4ccccc34)n2)c(OC)cc1N(C)CCN(C)C [osimertinib, reference compound]
[25]
  PFS: 19.3 months
  RR: 77%
[22]
  PFS: 18.9 months
  median PFS: 14.4 months
[14]
  confluency at 2 weeks: 24%
[16]
  EGFR, AKT and ERK1/2 phosphorylation in tumors: complete inhibition of EGFR phosphorylation
[26]
  progression free survivals (PFS): 9.9–12.3 months
  response rate (RR): 62–71%
[18]
  sensitivity of cell proliferation: sensitive
[20]
  tumor volume change at day 18: minimal reduction in tumor volume
[20]; osimertinib 25mg/kg alone or with JBJ-04-125-02 100mg/kg, 28 days
  tumor regression: ~100%
[21]
  apoptosis (Caspase-3/7 activity): time-dependent increase in apoptosis

## O=C(Nc1nccs1)C(c1ccccc1)N1Cc2ccc(-c3ccc4[nH]ccc4c3)cc2C1=O (stereo not drawn) [JBJ-02-112-05]
[12]; 100mg/kg
  phosphorylation of EGFR and downstream signaling in tumors: also inhibited phosphorylation of EGFR and downstream signaling pathways although not as robustly as JBJ-04-125-02
[17]; 100mg/kg
  change in tumor volume: ineffective
[27]
  IC50: 15 nM
